In patent US10316017B2, “COT modulators and methods of use thereof” (Gilead Sciences, Inc., priority 2015, dated 2019):

Tests used:
[1] = tested on: TNFα production in LPS-stimulated human monocytes; experiment: Cot Monocyte TNFα Cell Based Assay; conditions: Homo sapiens, Monocyte, TNFα in LPS-stimulated human monocytes; read-out: EC50 TNF
Procedure, shortened: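 TR-FRET read-out of total secreted TNFα, normalized as % control (unstimulated = 0%, LPS-stimulated = 100%). Cells (5,000/well) were exposed to compound 1 h at 37 °C, then to 50 pg/ml LPS for a further 4 h.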

[2] = biological target: T1, human Cot catalytic domain (30-397 amino acids) (Homo sapiens, UniProt P41279); experiment: High Throughput Cot Biochemical Assay (KinEASE TR-FRET); conditions: Cot KinEASE TR-FRET (HTRF) biochemical assay, 400 μM ATP; read-out: IC50 HTRF
T1 construct: Purified recombinant human Cot catalytic domain (30-397 amino acids) was purchased from Cama Biosciences; purchased Cama Biosciences (so in the source)
Procedure, shortened: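 TR-FRET readout: Eu-labeled phospho-specific antibody binds XL665-tagged STK3 peptide after phosphorylation by Cot (aa 30-397, 5 nM). Conditions: 400 μM ATP, 1 μM peptide, MOPS pH 7.0 buffer with MgOAc, DTT, BSA, NP-40, glycerol; 0.1% DMSO.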

T1 sequence (P41279 30-397): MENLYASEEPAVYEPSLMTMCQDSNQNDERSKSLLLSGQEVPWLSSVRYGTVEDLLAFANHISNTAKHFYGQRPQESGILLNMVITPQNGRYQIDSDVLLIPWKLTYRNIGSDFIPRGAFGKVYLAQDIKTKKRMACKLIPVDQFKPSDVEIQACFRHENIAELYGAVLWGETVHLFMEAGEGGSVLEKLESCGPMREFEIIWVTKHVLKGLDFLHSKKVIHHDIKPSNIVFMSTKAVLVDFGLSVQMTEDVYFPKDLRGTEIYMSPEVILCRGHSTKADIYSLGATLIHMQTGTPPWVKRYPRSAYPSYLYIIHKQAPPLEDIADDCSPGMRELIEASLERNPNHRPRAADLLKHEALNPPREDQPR

| SMILES | EC50 [1] | IC50 [2] |
| --- | --- | --- |
| [2H][C@](Nc1cc(-c2ccccc2)c2ncc(C#N)c(NCC(C)(C)C)c2c1)(c1ccc(F)cc1)c1cn(C2CC2)nn1 [Example 171, (S)-6-(((1-cyclopropyl-1H-1,2,3-triazol-4-yl)(4-fluorophenyl)methyl-d)amino)-4-(neopentylamino)-8-phenylquinoline-3-carbonitrile] | > 10000 nM | 9530 nM |
| [2H][C@](Nc1cc(OC)c2ncc(C#N)c(NCC(C)(C)C)c2c1)(c1ccc(F)cc1)c1cn(C2CC2)nn1 [Example 172, (S)-6-(((1-cyclopropyl-1H-1,2,3-triazol-4-yl)(4-fluorophenyl)methyl-d)amino)-8-methoxy-4-(neopentylamino) quinoline-3-carbonitrile] | 1640 nM | 139 nM |
| [2H][C@](Nc1cc(Cl)c2ncc(C#N)c(NC(CC)Cc3ccccc3)c2c1)(c1ccc(F)cc1)c1cn(C2CC2)nn1 (stereo partly drawn) [Example 175, 8-chloro-6-(((S)-(1-cyclopropyl-1H-1,2,3-triazol-4-yl)(4-fluorophenyl)methyl-d)amino)-4-((1-phenylbutan-2-yl)amino)quinoline-3-carbonitrile] | 5920 nM | 280 nM |
| [2H][C@](Nc1cc(Cl)c2ncc(C#N)c(NCC3(C(F)(F)F)CC3)c2c1)(c1ccc(F)cc1)c1cn(C2CC2)nn1 [Example 176] | 809 nM | 83 nM |
| [2H][C@](Nc1cc(Cl)c2ncc(C#N)c(NN3CCCCCC3)c2c1)(c1ccc(F)cc1)c1cn(C2CC2)nn1 [Example 177, (S)-4-(azepan-1-ylamino)-8-chloro-6-(((1-cyclopropyl-1H-1,2,3-triazol-4-yl)(4-fluorophenyl)methyl-d)amino)quinoline-3-carbonitrile] | 2460 nM | 370 nM |
| [2H][C@](Nc1cc(Cl)c2ncc(C#N)c(NN3CCCCC3)c2c1)(c1ccc(F)cc1)c1cn(C2CC2)nn1 [Example 178, (S)-8-chloro-6-(((1-cyclopropyl-1H-1,2,3-triazol-4-yl)(4-fluorophenyl)methyl-d)amino)-4-(piperidin-1-ylamino) quinoline-3-carbonitrile] | 674 nM | 110 nM |
| [2H][C@](Nc1cc(Cl)c2ncc(C#N)c(NN3CCCC3)c2c1)(c1ccc(F)cc1)c1cn(C2CC2)nn1 [Example 179, (S)-8-chloro-6-(((1-cyclopropyl-1H-1,2,3-triazol-4-yl)(4-fluorophenyl)methyl-d)amino)-4-(pyrrolidin-1-ylamino)quinoline-3-carbonitrile] | 2310 nM | 193 nM |
| [2H][C@](Nc1cc(Cl)c2ncc(C#N)c(NC(CC)c3cnc(F)c(F)c3)c2c1)(c1ccc(F)cc1)c1cn(C2CC2)nn1 (stereo partly drawn) [Example 180, 8-chloro-6-(((S)-(1-cyclopropyl-1H-1,2,3-triazol-4-yl)(4-fluorophenyl)methyl-d)amino)-4-((1-(5,6-difluoropyridin-3-yl)propyl)amino) quinoline-3-carbonitrile] | 3590 nM | 194 nM |
| [2H][C@](Nc1cc(Cl)c2ncc(C#N)c(N[C@H](COC)c3ccccc3)c2c1)(c1ccc(F)cc1)c1cn(C2CC2)nn1 [Example 181, 8-chloro-6-(((1-cyclopropyl-1H-1,2,3-triazol-4-yl)(4-fluorophenyl)methyl-d)amino)-4-(((S)-2-methoxy-1-phenylethyl)amino) quinoline-3-carbonitrile] | 348 nM | 28 nM |
| [2H][C@@](Nc1cc(C#N)c2ncc(C#N)c(Nc3ccc(F)c(Cl)c3)c2c1)(c1cn(C2CC2)nn1)c1ccccc1Cl [Example 182, (S)-4-((3-chloro-4-fluorophenyl)amino)-6-(((2-chlorophenyl)(1-cyclopropyl-1H-1,2,3-triazol-4-yl)methyl-d)amino) quinoline-3,8-dicarbonitrile] | 136 nM | 4 nM |
| [2H][C@@](Nc1cc(Cl)c2ncc(C#N)c(Nc3ccc(Cl)c(Cl)c3F)c2c1)(c1cn(C2CC2)nn1)c1ccccc1Cl [Example 183, (S)-8-chloro-6-(((2-chlorophenyl)(1-cyclopropyl-1H-1,2,3-triazol-4-yl)methyl-d)amino)-4-((3,4-dichloro-2-fluorophenyl)amino)quinoline-3-carbonitrile] | 1410 nM | 89 nM |
| [2H]C(Nc1cc(Cl)c2ncc(C#N)c(NCC(C)(C)C)c2c1)(c1ccc(F)cc1)c1nnnn1C (centres unmarked) [Example 184, 8-chloro-6-(((4-fluorophenyl)(1-methyl-1H-tetrazol-5-yl)methyl-d)amino)-4-(neopentylamino) quinoline-3-carbonitrile] | 4380 nM | 154 nM |
| [2H][C@](Nc1cc(Cl)c2ncc(C#N)c(N[C@@H](c3ccccc3)C3CC3)c2c1)(c1ccc(F)cc1)c1cn(C2CC2)nn1 [Example 185, 8-chloro-4-(((R)-cyclopropyl (phenyl)methyl)amino)-6-(((S)-(1-cyclopropyl-1H-1,2,3-triazol-4-yl)(4-fluorophenyl)methyl-d)amino)quinoline-3-carbonitrile] | 199 nM | 11 nM |
| [2H][C@](Nc1cc(Cl)c2ncc(C#N)c(NC3CCCC3(C)C)c2c1)(c1ccc(F)cc1)c1cn(C2CC2)nn1 (some centres unmarked) [Example 189] | 157 nM | 10 nM |
| [2H][C@](Nc1cc(Cl)c2ncc(C#N)c(NC3CCOCC3(C)C)c2c1)(c1ccc(F)cc1)c1cn(C2CC2)nn1 (stereo partly drawn) [Example 190, 8-chloro-6-(((S)-(1-cyclopropyl-1H-1,2,3-triazol-4-yl)(4-fluorophenyl)methyl-d)amino)-4-((3,3-dimethyltetrahydro-2H-pyran-4-yl)amino)quinoline-3-carbonitrile] | 55 nM | 3 nM |
| [2H]C(Nc1cc(Cl)c2ncc(C#N)c(NC(CS(C)(=O)=O)c3ccccc3)c2c1)(c1ccc(F)cc1)c1cn(C2CC2)nn1 (centres unmarked) [Example 193, 8-chloro-6-(((1-cyclopropyl-1H-1,2,3-triazol-4-yl)(4-fluorophenyl)methyl-d)amino)-4-((2-(methylsulfonyl)-1-phenylethyl)amino) quinoline-3-carbonitrile] | 833 nM | 57 nM |
| [2H][C@](Nc1cc(C(F)(F)F)c2ncc(C#N)c(N[C@H](CC)c3ccccc3)c2c1)(c1ccc(F)cc1)c1cn(C2CC2)nn1 [Example 195, 6-(((S)-(1-cyclopropyl-1H-1,2,3-triazol-4-yl)(4-fluorophenyl)methyl-d)amino)-4-(((R)-1-phenylpropyl)amino)-8-(trifluoromethyl) quinoline-3-carbonitrile] | 1190 nM | 160 nM |

Second part, the compound after the results:

| EC50 [1] | IC50 [2] | SMILES |
| --- | --- | --- |
| 1850 nM | 140 nM | [2H][C@](Nc1cc(Cl)c2ncc(C#N)c(NC(C)(C)CO)c2c1)(c1ccc(F)cc1)c1cn(C2CC2)nn1 [Example 173, (S)-8-chloro-6-(((1-cyclopropyl-1H-1,2,3-triazol-4-yl)(4-fluorophenyl)methyl-d)amino)-4-((1-hydroxy-2-methylpropan-2-yl)amino)quinoline-3-carbonitrile] |
| > 10000 nM | 837 nM | [2H][C@](Nc1cc(Cl)c2ncc(C#N)c(NC(C)CCO)c2c1)(c1ccc(F)cc1)c1cn(C2CC2)nn1 (some centres unmarked) [Example 174] |
| > 10000 nM | > 10000 nM | [2H][C@](Nc1cc(Cl)c2ncc(C#N)c(N[C@@H](CO)C(C)(C)C)c2c1)(c1ccc(F)cc1)c1cn(C2CC2)nn1 [Example 186, 8-chloro-6-(((S)-(1-cyclopropyl-1H-1,2,3-triazol-4-yl)(4-fluorophenyl)methyl-d)amino)-4-(((R)-1-hydroxy-3,3-dimethylbutan-2-yl)amino)quinoline-3-carbonitrile] |
| 793 nM | 85 nM | [2H][C@](Nc1cc(Cl)c2ncc(C#N)c(N[C@H](CO)C(C)(C)C)c2c1)(c1ccc(F)cc1)c1cn(C2CC2)nn1 [Example 187, 8-chloro-6-(((S)-(1-cyclopropyl-1H-1,2,3-triazol-4-yl)(4-fluorophenyl)methyl-d)amino)-4-(((S)-1-hydroxy-3,3-dimethylbutan-2-yl)amino)quinoline-3-carbonitrile] |
| 203 nM | 16 nM | [2H][C@](Nc1cc(Cl)c2ncc(C#N)c(N[C@H](C)C(C)(C)C)c2c1)(c1ccc(F)cc1)c1cn(C2CC2)nn1 [Example 188, 8-chloro-6-(((S)-(1-cyclopropyl-1H-1,2,3-triazol-4-yl)(4-fluorophenyl)methyl-d)amino)-4-(((R)-3,3-dimethylbutan-2-yl)amino)quinoline-3-carbonitrile] |
| 487 nM | 56 nM | [2H][C@](Nc1cc(Cl)c2ncc(C#N)c(NCC(Cl)(Cl)Cl)c2c1)(c1ccc(F)cc1)c1cn(C2CC2)nn1 [Example 191, (S)-8-chloro-6-(((1-cyclopropyl-1H-1,2,3-triazol-4-yl)(4-fluorophenyl)methyl-d)amino)-4-((2,2,2-trichloroethyl)amino) quinoline-3-carbonitrile] |
| 107 nM | 3 nM | [2H][C@](Nc1cc(Cl)c2ncc(C#N)c(NCC(C)(C)CCl)c2c1)(c1ccc(F)cc1)c1cn(C2CC2)nn1 [Example 192, (S)-8-chloro-4-((3-chloro-2,2-dimethylpropyl)amino)-6-(((1-cyclopropyl-1H-1,2,3-triazol-4-yl)(4-fluorophenyl)methyl-d)amino)quinoline-3-carbonitrile] |
| 2420 nM | 286 nM | [2H][C@](Nc1cc(C)c2ncc(C#N)c(NCC(C)(C)C)c2c1)(c1ccc(F)cc1)c1cn(C2CC2)nn1 [Example 194, (S)-6-(((1-cyclopropyl-1H-1,2,3-triazol-4-yl)(4-fluorophenyl)methyl-d)amino)-8-methyl-4-(neopentylamino) quinoline-3-carbonitrile] |
